# Data from patent US20130197032A1, “[…] COMPOUNDS FOR THE TREATMENT OF NEUROLOGICAL AND […] DISORDERS” (A. CARLSSON RESEARCH AB, priority 2010, published 2013).
# pEC50: −log10 of the molar value.
# Assays:
# human D5 receptor = molecular target: T1, human D5 receptor (Homo sapiens, UniProt P21918); assay: R-SAT assay D5; type: cell-based; details: Table 3, D5; percent response of reference SKF 38393
# T1 construct: expressed in transfected cells; host or cells: NIH-3T3 (inferred: R-SAT host; D5 is in neither method list of b200)
# human M5 receptor = molecular target: T2, human M5 receptor (Homo sapiens, UniProt P08912); assay: R-SAT assay M5; type: cell-based; details: Table 3, M5; percent response of reference Carbachol
# T2 construct: expressed in transfected cells; host or cells: NIH/3T3 cells, transient transfection, pSI vector
# human D3 receptor = molecular target: T3, human D3 receptor (Homo sapiens, UniProt P35462); assay: R-SAT assay D3; type: cell-based; details: Table 3, D3
# T3 construct: expressed in transfected cells
# [1] = clinical observation; cited from earlier work
# [2] = test system: synthesis of dopamine in the striatum of the brain; details: Sonesson's thesis 1995; cited from earlier work
# T3 sequence (P35462 whole entry): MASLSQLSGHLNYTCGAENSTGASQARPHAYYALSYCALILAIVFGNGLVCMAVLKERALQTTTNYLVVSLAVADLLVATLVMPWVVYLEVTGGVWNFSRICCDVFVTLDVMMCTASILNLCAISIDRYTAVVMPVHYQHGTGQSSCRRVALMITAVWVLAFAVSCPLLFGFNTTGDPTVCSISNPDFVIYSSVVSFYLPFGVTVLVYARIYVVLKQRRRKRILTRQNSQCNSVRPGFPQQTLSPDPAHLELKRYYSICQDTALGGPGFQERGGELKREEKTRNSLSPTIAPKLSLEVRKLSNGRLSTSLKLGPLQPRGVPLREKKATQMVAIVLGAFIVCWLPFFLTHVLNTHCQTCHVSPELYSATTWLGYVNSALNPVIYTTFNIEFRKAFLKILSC
# T1 sequence (P21918 whole entry): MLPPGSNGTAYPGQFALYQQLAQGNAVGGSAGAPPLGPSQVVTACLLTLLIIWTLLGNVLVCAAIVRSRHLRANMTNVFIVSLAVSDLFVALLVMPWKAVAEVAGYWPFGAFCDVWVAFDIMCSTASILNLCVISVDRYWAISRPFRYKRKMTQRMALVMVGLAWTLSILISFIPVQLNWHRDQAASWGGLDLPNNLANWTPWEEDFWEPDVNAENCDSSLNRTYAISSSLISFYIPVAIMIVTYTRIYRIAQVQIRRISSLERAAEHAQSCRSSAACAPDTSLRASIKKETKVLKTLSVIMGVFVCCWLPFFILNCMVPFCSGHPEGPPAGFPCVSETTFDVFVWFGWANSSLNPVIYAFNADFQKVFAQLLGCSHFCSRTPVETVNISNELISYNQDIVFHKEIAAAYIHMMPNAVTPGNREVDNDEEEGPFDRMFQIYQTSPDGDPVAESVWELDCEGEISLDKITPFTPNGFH
# T2 sequence (P08912 whole entry): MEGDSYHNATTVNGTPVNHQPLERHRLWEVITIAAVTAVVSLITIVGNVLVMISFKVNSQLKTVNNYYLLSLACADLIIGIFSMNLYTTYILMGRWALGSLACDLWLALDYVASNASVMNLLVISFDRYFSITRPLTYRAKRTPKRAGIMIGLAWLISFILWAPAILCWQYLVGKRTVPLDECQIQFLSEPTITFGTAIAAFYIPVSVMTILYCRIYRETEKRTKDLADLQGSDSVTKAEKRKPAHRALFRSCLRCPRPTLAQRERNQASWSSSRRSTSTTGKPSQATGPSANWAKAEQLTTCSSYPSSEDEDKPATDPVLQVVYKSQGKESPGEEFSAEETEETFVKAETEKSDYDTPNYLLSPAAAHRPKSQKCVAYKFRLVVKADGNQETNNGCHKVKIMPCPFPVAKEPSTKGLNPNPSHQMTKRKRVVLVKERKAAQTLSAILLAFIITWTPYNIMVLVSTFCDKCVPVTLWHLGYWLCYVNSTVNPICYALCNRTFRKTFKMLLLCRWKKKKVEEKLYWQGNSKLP
smiles,measurement,setting,value
"CCCN1CCC[C@@H](c2cccc(S(C)(=O)=O)c2)C1 [(−)-OSU6162, (3S)-3-[3-(methylsulfonyl)phenyl]-1-propylpiperidine]",Eff (%),human D5 receptor,10%
same,Eff (%),human M5 receptor,−5%
same,pEC50,human D3 receptor; negative logarithm of EC50 in molar,5.40
same,Eff (%),human D3 receptor; percent response of reference Pergolide,54%
same,hallucinogenic activity,[1],no hallucinogenic activity
"CCCN1CCC[C@H](c2cccc(S(C)(=O)=O)c2)C1 [(+)-OSU6162, (3R)-3-[3-(methylsulfonyl)phenyl]-1-propylpiperidine]",synthesis of dopamine in the striatum of the brain,[2],weak increase in the synthesis of dopamine in the striatum of the brain
